Test results reported in the supplement of paper PMC5908809.

Assays:
[1] = test system: normal NK cells expanded with K562-aAPC; assay: percent inhibition of viability; higher = more inhibition; details: 72 h, IL-2 2.5 ng/mL
Experimental: (§1)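 Drug sensitivity and resistance testing on K562-aAPC-expanded normal NK cells: 5 concentrations (10-fold steps over a 10,000-fold range), 72 h at 37 °C, viability by CellTiter-Glo normalised to DMSO and benzethonium chloride controls; DSS from the fitted curve.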

[2] = test system: DERL-7 (IL-2 2.5 ng/mL); assay: as above; details: 72 h
[3] = test system: IMC-1 (IL-2 20 ng/mL); assay: as above; details: 72 h
[4] = test system: KAI3 (IL-2 2.5 ng/mL); assay: as above; details: 72 h
[5] = test system: KHYG-1 (IL-2 2.5 ng/mL); assay: as above; details: 72 h
[6] = test system: NK-92 (IL-2 2.5 ng/mL); assay: as above; details: 72 h
[7] = test system: NK-YS (IL-2 2.5 ng/mL); assay: as above; details: 72 h
[8] = test system: NKL (IL-2 2.5 ng/mL); assay: as above; details: 72 h
[9] = test system: SNK-6 (IL-2 2.5 ng/mL); assay: as above; details: 72 h
[10] = test system: YT (IL-2 2.5 ng/mL); assay: as above; details: 72 h
[11] = test system: normal primary NK cells, pool 1 (3 donors) (IL-2 2.5 ng/mL); assay: as above; details: 72 h
[12] = test system: normal primary NK cells, pool 1 (3 donors), resting (IL-2 0 ng/mL); assay: as above; details: 72 h
[13] = test system: normal primary NK cells, pool 2 (3 donors) (IL-2 2.5 ng/mL); assay: as above; details: 72 h
[14] = test system: normal primary NK cells, pool 3 (3 donors) (IL-2 2.5 ng/mL); assay: as above; details: 72 h
[15] = test system: normal NK cells expanded with K562-aAPC; assay: drug sensitivity score (DSS) (DSS units); higher = more sensitive; extreme values may be limits of the assay; details: 72 h; IL-2 2.5 ng/mL
Experimental: as §1

[16] = test system: DERL-7 (IL-2 2.5 ng/mL); assay: as above; details: 72 h
[17] = test system: IMC-1 (IL-2 20 ng/mL); assay: as above; details: 72 h
[18] = test system: KAI3 (IL-2 2.5 ng/mL); assay: as above; details: 72 h
[19] = test system: KHYG-1 (IL-2 2.5 ng/mL); assay: as above; details: 72 h
[20] = test system: NK-92 (IL-2 2.5 ng/mL); assay: as above; details: 72 h
[21] = test system: NK-YS (IL-2 2.5 ng/mL); assay: as above; details: 72 h
[22] = test system: NKL (IL-2 2.5 ng/mL); assay: as above; details: 72 h
[23] = test system: SNK-6 (IL-2 2.5 ng/mL); assay: as above; details: 72 h
[24] = test system: YT (IL-2 2.5 ng/mL); assay: as above; details: 72 h
[25] = test system: normal primary NK cells, pool 1 (3 donors) (IL-2 2.5 ng/mL); assay: as above; details: 72 h
[26] = test system: normal primary NK cells, pool 1 (3 donors), resting (IL-2 0 ng/mL); assay: as above; details: 72 h
[27] = test system: normal primary NK cells, pool 2 (3 donors) (IL-2 2.5 ng/mL); assay: as above; details: 72 h
[28] = test system: normal primary NK cells, pool 3 (3 donors) (IL-2 2.5 ng/mL); assay: as above; details: 72 h

C[C@]1(c2nc3c(C(N)=O)cccc3[nH]2)CCCN1 [Veliparib] (max concentration tested 10000 nM)
percent inhibition of viability [%]
Details | 1 nM | 10 nM | 100 nM | 1000 nM | 10000 nM
[1] | 3.32 | 0.6 | 3.03 | 3.27 | 19.4
[2] | 1.66 | 5.22 | 0.09 | -2.95 | 25.1
[3] | 1 | 0.9 | 0.37 | 0.91 | 1.79
[4] | 1.98 | -0.92 | -2.55 | 12.1 | 34.3
[5] | -11.7 | -8.12 | -8.94 | -3.41 | 12
[6] | 7.45 | 4.92 | 2.84 | -4.04 | 22.9
[7] | -6.78 | -8.37 | -8.01 | -6.17 | 14.8
[8] | -2.87 | -3.94 | -5.59 | 4.18 | 38.6
[9] | 3.66 | 1.93 | -13.1 | -1.7 | 13.8
[10] | 1.3 | -1.34 | 0.84 | -0.22 | 3.43
[11] | -7.43 | 1.5 | 2.84 | 7.25 | 50.4
[12] | -8.38 | -4.44 | 2.95 | -4.91 | 56.4
[13] | -7.51 | -2.4 | -4.92 | -8.11 | 16.4
[14] | -3.03 | -1.96 | -0.62 | -3.1 | 15.2

Details | drug sensitivity score
[15] | 0.98
[16] | 0.78
[17] | 0
[18] | 3.29
[19] | 0.01
[20] | 0.6
[21] | 0.1
[22] | 2.57
[23] | 0.1
[24] | 0
[25] | 3.89
[26] | 2.67
[27] | 0.16
[28] | 0.16

CC(=O)O[C@H]1C(=O)[C@@]2(C)[C@H]([C@H](OC(=O)c3ccccc3)[C@]3(O)C[C@H](OC(=O)[C@H](O)[C@@H](NC(=O)c4ccccc4)c4ccccc4)C(C)=C1C3(C)C)[C@]1(OC(C)=O)CO[C@@H]1C[C@@H]2O [Paclitaxel] (max concentration tested 1000 nM)
percent inhibition of viability [%]
Details | 0.1 nM | 1 nM | 10 nM | 100 nM | 1000 nM
[1] | 0.76 | -4.63 | 3.65 | 56.1 | 55.1
[2] | 2.23 | -0.79 | 99.4 | 100 | 99.4
[3] | -7.88 | -0.55 | 98.5 | 100 | 99.5
[4] | -12.1 | 9.77 | 53 | 60.6 | 46.1
[5] | -5.68 | -0.23 | 77.2 | 106 | 99.2
[6] | -18.6 | -5.15 | 11.3 | 92.6 | 94
[7] | -2.51 | -5.4 | 71.3 | 77.6 | 64.6
[8] | -17.5 | -11.8 | 84.1 | 93.2 | 87.1
[9] | 6.76 | -3.54 | 75.5 | 79 | 72.6
[10] | -2.12 | -2.24 | 82.5 | 102 | 93.8
[11] | -14.5 | -13.4 | -1.12 | -4.6 | 3.64
[12] | -38.3 | -37.4 | -2.05 | -14 | 0.96
[13] | -2.11 | -0.3 | -9.26 | 1.41 | 14
[14] | -12.4 | -15.8 | -13.3 | -0.71 | 10.2

Details | drug sensitivity score
[15] | 10.8
[16] | 30.3
[17] | 30.2
[18] | 18.9
[19] | 26.9
[20] | 18.8
[21] | 22.8
[22] | 26.6
[23] | 23.7
[24] | 27.5
[25] | 0
[26] | 0
[27] | 0.27
[28] | 0

NC(=O)N1CCC(CC(=O)N2CCC([C@H]3c4ncc(Br)cc4CCc4cc(Cl)cc(Br)c43)CC2)CC1 [Lonafarnib] (max concentration tested 10000 nM)
percent inhibition of viability [%]
Details | 1 nM | 10 nM | 100 nM | 1000 nM | 10000 nM
[1] | -2.48 | -4.83 | 1.81 | 10.5 | 25.2
[2] | 3.48 | 0.48 | 5.47 | 44.5 | 73
[3] | -4.85 | -3.21 | -6.32 | -1.06 | 36.6
[4] | -4.05 | 0.27 | 9.71 | 30.5 | 38.6
[5] | -3.98 | -2.08 | 3.33 | 67.6 | 83.9
[6] | -13 | -12.8 | -0.32 | 39.8 | 57.2
[7] | -6.93 | -2.78 | 13.2 | 56.3 | 79.7
[8] | -11.3 | -10.4 | -4.09 | 19.2 | 37.3
[9] | 3.51 | 1.11 | 8.58 | 31.1 | 33.3
[10] | -2.94 | -2.27 | 4.51 | 28.1 | 60.1
[11] | -10.4 | -3.37 | 6.08 | 19.4 | 88.9
[12] | -4.29 | 2.54 | 32.3 | 35.8 | 90
[13] | -4.12 | 2.21 | 1.62 | 17.7 | 73.4
[14] | -2.09 | 0.34 | 2.3 | 9.06 | 52.3

Details | drug sensitivity score
[15] | 1.95
[16] | 9.51
[17] | 1.66
[18] | 6.28
[19] | 13
[20] | 7.81
[21] | 12.2
[22] | 4.21
[23] | 6.27
[24] | 6.47
[25] | 8.02
[26] | 11.6
[27] | 6.83
[28] | 4.3
